Experimental data taken from article PMC5522996, “Big conductance calcium‐activated potassium channel openers control spasticity without sedation” (British Journal of Pharmacology, 2017).

What was measured:
EDG4 = biological target: T1, EDG4 (Homo sapiens, UniProt Q9HBW0); assay: Receptor binding profile of VSN16R; conditions: 10µM VSN16R
T1 construct: purchased Cerep; Chantest; DiscoveRx; Multispan; MDS Pharma Services

dogs = assay: 28 day toxicology in dogs (50, 100, 200mg/kg p.o.); assay type: in vivo, dog
Protocol: Twenty‐eight day toxicology in rats and dogs for Investigational New Drug filing was performed by Charles Rivers (UK). Reproductive toxicology in rabbits was performed by Charles Rivers (Canada). Pharmacokinetic and/or toxicological doses ranged from 5 to 1000 mg·kg^−1 p.o. in Sprague Dawley male and female rats (n = 6‐26 per group), 50–200 mg·kg^−1 p.o. in male and female Beagle dogs (n = 6 per group) and 100–750 mg·kg^−1 p.o. in female New Zealand white rabbits (n = 9 per group). Results are expressed as mean ± SD.
Tissue Analysed Result of Tissue Analysis in Rats Result of Tissue Analysis in Dogs Artery, Aorta Negative Negative
Bone Marrow femur Negative Negative
Bone Marrow sternum Negative Negative
Bone, Sternum Negative Negative
Epididymus Negative Negative
Adrenal Gland Negative Negative
Mammary Grand Negative Negative
Parathyroid Gland Negative Negative
Pituitary Gland Negative Negative
Prostate Gland Negative Negative
Salivary Gland Negative Negative
Seminal Vesicle Gland Negative Negative
Gut associated lymphoid Negative Negative
Large Intestine caecum Negative Negative
Large Intestine colon Negative Negative
Large Intestine rectum Negative Negative
Mandibular Lymph Node Negative Negative
Mesenteric Lymph Node Negative Negative
Skeletal Muscle Negative Negative
Nasal Cavity Negative Negative
Sciatic Nerve Negative Negative
Oesophagus Negative Negative
Pancreas Negative Negative […]

healthy humans = assay: Phase I single dose: coagulation, urinanalysis, vital signs, electrocardiograms; conditions: for Electrocardiogram Heart Rate / PR Duration / QRS Duration / QT Duration / RR Duration: Day 1; for Activated Partial Thrombin Time / Partial Prothrombin Time / Supine Diastolic Blood Pressure / Supine Pulse Rate / Supine Respiratory Rate / Supine Systolic Blood Pressure / Supine Temperature / Thrombin Time / Urinanalysis Ketones / Urinanalysis Specific Gravity / Urinanalysis pH / Urine Bilirubin / Urine Glucose / Urine Protein / Urine RBC: Day 2
EDG3 = biological target: T2, EDG3 (Homo sapiens, UniProt Q99500); assay: Receptor binding profile of VSN16R; conditions: 10µM VSN16R
T2 construct: purchased Cerep; Chantest; DiscoveRx; Multispan; MDS Pharma Services

BKCa channel = BKCa channel (Homo sapiens, UniProt Q12791); assay: Single‐channel inside‐out patch clamp, HCN‐2 neural cells; assay type: cell-based; conditions: inside‐out patches
Protocol: The human EA.hy926 endothelial cells (ATCC, Manassas, USA) were grown in DMEM containing 10% FCS and 1% HAT (5 mM hypoxanthine, 20 μM aminopterin and 0.8 mM thymidine) and were maintained in an incubator at 37°C in 5% CO2 atmosphere (Bondarenko et al., 2013). Human HNC‐2 neuronal cells were obtained from ATCC. For experiments, cells were plated on glass coverslips. Single‐channel recordings were obtained from excised inside‐out membrane patches in symmetrical solutions using the patch‐clamp technique. All patch‐clamp experiments were performed at room temperature with the use of a water hydraulic micromanipulator (WR‐6, Narishige, Japan). […] The pipettes were filled with 140 mM KCl, 10 mM HEPES, 1 mM MgCl2, 5 mM EGTA and […] CaCl2 buffered to pH 7.2 by adding KOH. Cells were super‐perfused with a bath solution containing 140 mM NaCl, 5 mM KCl, 1.2 mM MgCl2, 10 mM HEPES, 10 mM glucose and 2.4 mM CaCl2. […] Single‐channel activity was expressed as NPo, where N represents the number of functional ion channels in the membrane patch and Po represents the open channel probability determined from idealized traces (Bondarenko et al., 2011). […] Data were analysed by ANOVA, and statistical significance was evaluated using Scheffés post hoc test of the Prism 5 software for Windows (GraphPad Software).

SK+Ca channel (KCNN2) = biological target: T3, SK+Ca channel (KCNN2) (Homo sapiens, UniProt Q9H2S1); assay: Receptor binding profile of VSN16R
T3 construct: purchased Cerep; Chantest; DiscoveRx; Multispan; MDS Pharma Services

BZD = assay: Receptor binding profile of VSN16R; set-up: species or system human; conditions: 10µM VSN16R
CYP450 3A5 = CYP450 3A5 (Homo sapiens, UniProt P20815)
Chain of CYP450 3A5 (P20815 whole entry): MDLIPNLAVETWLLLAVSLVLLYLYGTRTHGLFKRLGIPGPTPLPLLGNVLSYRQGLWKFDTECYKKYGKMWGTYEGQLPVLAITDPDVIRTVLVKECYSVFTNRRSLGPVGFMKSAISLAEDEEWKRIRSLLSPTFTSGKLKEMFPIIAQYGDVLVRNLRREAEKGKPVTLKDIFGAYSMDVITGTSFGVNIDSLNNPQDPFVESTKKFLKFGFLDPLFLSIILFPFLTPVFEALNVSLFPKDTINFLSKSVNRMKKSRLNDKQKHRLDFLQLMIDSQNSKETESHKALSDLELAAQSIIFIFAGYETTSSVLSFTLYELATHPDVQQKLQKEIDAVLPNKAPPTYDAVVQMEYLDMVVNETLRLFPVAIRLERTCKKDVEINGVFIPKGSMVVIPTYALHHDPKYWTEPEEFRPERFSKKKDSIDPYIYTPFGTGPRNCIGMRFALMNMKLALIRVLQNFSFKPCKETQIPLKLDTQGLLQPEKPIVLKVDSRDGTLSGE
Description: IC50 Inhibition of substrate binding
Inhibition of binding of either 3-cyano-7-ethoxycoumarin, dibenzylfluorescein or 7-benzyoxy-4-
(trifluoromethyl) coumarin in human enzyme transfected BTI NN-5B1-4 cells or Sf9 insect cells or
inhibition of dextromethorphan substrate to CYP450 2D6 in liver microsomes.

T2 sequence (Q99500 whole entry): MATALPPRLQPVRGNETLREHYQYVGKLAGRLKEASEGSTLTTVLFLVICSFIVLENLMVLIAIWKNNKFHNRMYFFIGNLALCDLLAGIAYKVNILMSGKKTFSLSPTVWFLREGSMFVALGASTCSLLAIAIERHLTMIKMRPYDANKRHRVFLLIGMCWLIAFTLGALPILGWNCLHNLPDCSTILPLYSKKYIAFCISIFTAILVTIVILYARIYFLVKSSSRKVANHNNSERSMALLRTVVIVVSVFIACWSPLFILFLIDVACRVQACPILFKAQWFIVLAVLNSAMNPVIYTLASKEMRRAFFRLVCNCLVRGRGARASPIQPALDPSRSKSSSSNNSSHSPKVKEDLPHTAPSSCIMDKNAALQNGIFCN
Chain of BKCa channel (Q12791 whole entry): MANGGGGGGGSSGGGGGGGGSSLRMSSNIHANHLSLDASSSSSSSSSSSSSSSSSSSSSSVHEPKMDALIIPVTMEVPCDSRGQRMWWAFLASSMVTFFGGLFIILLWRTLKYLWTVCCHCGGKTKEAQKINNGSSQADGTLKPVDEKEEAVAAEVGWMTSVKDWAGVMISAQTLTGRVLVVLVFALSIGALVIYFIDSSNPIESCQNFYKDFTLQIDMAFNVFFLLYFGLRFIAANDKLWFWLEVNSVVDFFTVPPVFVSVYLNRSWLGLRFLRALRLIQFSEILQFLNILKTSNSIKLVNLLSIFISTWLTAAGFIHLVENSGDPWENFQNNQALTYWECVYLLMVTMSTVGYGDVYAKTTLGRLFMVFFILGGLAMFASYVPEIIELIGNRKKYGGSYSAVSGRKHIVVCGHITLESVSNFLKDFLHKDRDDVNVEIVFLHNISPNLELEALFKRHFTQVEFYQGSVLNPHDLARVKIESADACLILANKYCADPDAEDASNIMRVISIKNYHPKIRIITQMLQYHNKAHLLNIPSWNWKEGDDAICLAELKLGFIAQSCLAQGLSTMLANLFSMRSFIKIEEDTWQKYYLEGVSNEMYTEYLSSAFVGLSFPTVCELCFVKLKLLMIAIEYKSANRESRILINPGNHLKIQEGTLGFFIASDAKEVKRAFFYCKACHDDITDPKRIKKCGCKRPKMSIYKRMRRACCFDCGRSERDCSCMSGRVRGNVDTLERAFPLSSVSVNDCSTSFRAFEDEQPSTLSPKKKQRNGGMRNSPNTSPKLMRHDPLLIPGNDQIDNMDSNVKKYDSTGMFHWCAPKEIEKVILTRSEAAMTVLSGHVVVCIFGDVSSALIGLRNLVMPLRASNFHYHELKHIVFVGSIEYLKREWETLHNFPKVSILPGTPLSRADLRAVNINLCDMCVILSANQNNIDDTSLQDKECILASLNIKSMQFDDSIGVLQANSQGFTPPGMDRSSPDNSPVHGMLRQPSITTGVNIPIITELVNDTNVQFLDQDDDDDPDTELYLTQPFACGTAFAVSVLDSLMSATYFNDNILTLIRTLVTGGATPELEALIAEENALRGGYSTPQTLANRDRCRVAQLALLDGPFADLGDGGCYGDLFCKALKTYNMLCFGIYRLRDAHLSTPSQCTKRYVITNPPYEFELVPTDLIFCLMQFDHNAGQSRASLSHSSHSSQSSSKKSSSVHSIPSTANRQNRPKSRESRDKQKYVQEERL
T1 sequence (Q9HBW0 whole entry): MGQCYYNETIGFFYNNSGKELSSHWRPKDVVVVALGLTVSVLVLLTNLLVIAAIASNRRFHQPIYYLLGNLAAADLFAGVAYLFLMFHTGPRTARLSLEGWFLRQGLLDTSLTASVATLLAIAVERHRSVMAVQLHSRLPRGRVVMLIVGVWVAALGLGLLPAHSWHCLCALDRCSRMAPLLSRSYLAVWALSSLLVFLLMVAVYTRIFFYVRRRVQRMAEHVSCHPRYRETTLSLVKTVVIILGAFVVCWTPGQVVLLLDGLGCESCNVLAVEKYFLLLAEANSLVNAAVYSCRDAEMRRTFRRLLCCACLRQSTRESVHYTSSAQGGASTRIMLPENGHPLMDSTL

## C[C@H](CO)NC(=O)c1cccc(/C=C\CCCC(=O)N(C)C)c1 [VSN16R]
EDG4
  Activity: Negligible Activity
dogs; dog, in vivo
  Result of Tissue Analysis in Dogs: Negative
dogs; p.o., dogs
  NOEL: 100 mg/kg
Healthy humans; 25mg
  Electrocardiogram Heart Rate: 59 ± 12 beats per min
  PR Duration: 184 ± 20 ms
  QRS Duration: 98 ± 9 ms
  QT Duration: 388 ± 26 ms
  RR Duration: 1044 ± 185 ms
  Activated Partial Thrombin Time: 26.4 ± 0.9 s
  Partial Prothrombin Time: 10.8 ± 0.3 s
  Supine Diastolic Blood Pressure: 65 ± 4 mmHg
  Supine Pulse Rate: 61 ± 15 beats per min
  Supine Respiratory Rate: 14 ± 2 Breath/min
  Supine Systolic Blood Pressure: 117 ± 9 mmHg
  Supine Temperature: 36.6 ± 0.2 ˚C
  Thrombin Time: 16.2 ± 0.8 s
  Urinanalysis Ketones: 0.0 ± 0.0 mmol/L
  Urinanalysis Specific Gravity: 1.016 ± 0.012
  Urinanalysis pH: 7.0 ± 0.6
  Urine Bilirubin: 0.0 ± 0.0 µmol/L
  Urine Glucose: 0.0 ± 0.0 mmol/L
  Urine Protein: 0.08 ± 0.10 g/L
  Urine RBC: 0.0 ± 0.0 mg/L
Healthy humans; 800mg
  Electrocardiogram Heart Rate: 67 ± 8 beats per min
  PR Duration: 164 ± 16 ms
  QRS Duration: 98 ± 7 ms
  QT Duration: 383 ± 19 ms
  RR Duration: 903 ± 122 ms
  Activated Partial Thrombin Time: 24.9 ± 1.9 s
  Partial Prothrombin Time: 10.9 ± 0.5 s
  Supine Diastolic Blood Pressure: 71 ± 9 mmHg
  Supine Pulse Rate: 65 ± 9 beats per min
  Supine Respiratory Rate: 16 ± 2 Breath/min
  Supine Systolic Blood Pressure: 118 ± 10 mmHg
  Supine Temperature: 36.6 ± 0.2 ˚C
  Thrombin Time: 15.9 ± 1.2 s
  Urinanalysis Ketones: 0.0 ± 0.0 mmol/L
  Urinanalysis Specific Gravity: 1.017 ± 0.009
  Urinanalysis pH: 6.0 ± 0.4
  Urine Bilirubin: 0.0 ± 0.0 µmol/L
  Urine Glucose: 0.0 ± 0.0 mmol/L
  Urine Protein: 0.06 ± 0.08 g/L
  Urine RBC: 0.0 ± 0.0 mg/L
EDG3
  Activity: Negligible Activity
BKCa channel
  Single BKCa channel activity: stimulated single BKCa channel activity
SK+Ca channel (KCNN2); 10µM VSN16R
  Activity: Negligible Activity
SK+Ca channel (KCNN2); transfected cells
  Block of apamin binding to KCa2.2 channels: failed to block the binding of apamin
BZD
  Activity: Negligible Activity
CYP450 3A5
  IC50: > 10 µM
